The values that follow come from patent US20040248887A1, “Inhibitors of cathepsin S” (IRM LLC, priority 2003, published 2004).

Sequence of Cathepsin S (P25774 115-331, species assumed): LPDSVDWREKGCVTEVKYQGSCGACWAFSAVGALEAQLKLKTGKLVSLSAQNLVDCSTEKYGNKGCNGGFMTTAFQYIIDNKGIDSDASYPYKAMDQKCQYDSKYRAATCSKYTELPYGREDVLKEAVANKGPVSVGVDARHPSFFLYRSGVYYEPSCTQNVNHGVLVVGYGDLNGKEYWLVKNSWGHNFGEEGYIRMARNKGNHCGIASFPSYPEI

This assay addresses Cathepsin S (Homo sapiens, UniProt P25774). In words: Cathepsin S inhibition, fluorogenic peptide substrate kinetic assay. The format is biochemical. To be noted: Table II; Cathepsin S inhibition constant, pH5.5; read-out: Ki Cat. S. The essentials: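 Ki values derive from apparent constants fitted to progress curves, corrected for competition with substrate via [S] and Km. Kinetics were monitored at 380 nm excitation/450 nm emission, after substrate addition (Ac-HPVK-ACC, 50 μM final) to start the reaction.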
For the compound `COc1cccc(C(=O)N[C@@H](CC(C)(C)C)C(=O)N[C@@H](CO)CN2CCc3cc(F)ccc32)c1` [Compound 156, N-{1-(S)-[2-(5-Fluoro-2,3-dihydro-indol-1-yl)-1-(R)-hydroxymethyl-ethylcarbamoyl]-3,3-dimethyl-butyl}-3-methoxy-benzamide], the Ki is less than 100 nM.

On to `O=C(NCCN1CCc2cc(F)ccc21)[C@H](CC1CCCCC1)NS(=O)(=O)c1ccc(Cl)s1` [Compound 227, (S)-2-(5-Chloro-thiophene-2-sulfonylamino)-3-cyclohexyl-N-[2-(5-fluoro-2,3-dihydro-indol-1-yl)-ethyl]-propionamide], for which the inhibitory constant (Ki) was less than 100 nM.

Consider `C[C@@H](CNc1ccc(S(C)(=O)=O)cc1)NC(=O)[C@H](CC1CCCCC1)NC(=O)c1ccc(-c2cccc(F)c2)o1` [Compound 89, 5-(3-Fluoro-phenyl)-furan-2-carboxylic acid {2-cyclohexyl-1-(S)-[2-(4-methanesulfonyl-phenylamino)-1-(S)-methyl-ethylcarbamoyl]-ethyl}-amide], for which the Ki was less than 100 nM.

As for `CS(=O)(=O)c1ccc(C(=O)N[C@@H](CC2CCCCC2)C(=O)NCCN2CCc3cc(F)ccc32)s1` [Compound 72, 5-Methanesulfonyl-thiophene-2-carboxylic acid (S)-{2-cyclohexyl-1-[2-(5-fluoro-2,3-dihydro-indol-1-yl)-ethylcarbamoyl]-ethyl}-amide], the inhibitory constant (Ki) is less than 100 nM.

`COc1cccc(C(=O)N[C@@H](Cc2ccc(F)cc2)C(=O)N[C@@H](COCc2ccccc2)CN2CCc3cc(F)ccc32)c1` [Compound 37, N-[1-(S)-[1-(R)-Benzyloxymethyl-2-(5-fluoro-2,3-dihydro-indol-1-yl)-ethylcarbamoyl]-2-(4-fluoro-phenyl)-ethyl]-3-methoxy-benzamide]: the inhibition constant (Ki) is less than 100 nM.

With `CC(C)(C)C[C@H](NC(=O)OCc1ccccc1)C(=O)N[C@@H](CC(=O)O)CN1CCc2cc(F)ccc21` [Compound 159, 3-(S)-(2-(S)-Benzyloxycarbonylamino-4,4-dimethyl-pentanoylamino)-4-(5-fluoro-2,3-dihydro-indol-1-yl)-butyric acid], the Ki is less than 1000 nM.

Take `O=C(NCCN1CCc2cc(F)ccc21)[C@H](CC1CCCCC1)NS(=O)(=O)c1cc2ccccc2s1` [Compound 234, (S)-2-(Benzo[b]thiophene-2-sulfonylamino)-3-cyclohexyl-N-[2-(5-fluoro-2,3-dihydro-indol-1-yl)-ethyl]-propionamide]: the Ki is less than 1000 nM.

As for `COc1ccc(-c2ccc(S(=O)(=O)N[C@@H](CC3CCCCC3)C(=O)NCCN3CCc4cc(F)ccc43)cc2)cc1` [Compound 238, (S)-3-Cyclohexyl-N-[2-(5-fluoro-2,3-dihydro-indol-1-yl)-ethyl]-2-(4′-methoxy-biphenyl-4-sulfonylamino)-propionamide], the inhibition constant (Ki) was less than 100 nM.

For the compound `Cc1ccc(C(C)C(=O)N[C@@H](CC2CCCCC2)C(=O)NCCN2CCc3cc(F)ccc32)cc1` (stereo partly drawn) [Compound 60, N-{2-cyclohexyl-1-(S)-[2-(5-fluoro-2,3-dihydro-indol-1-yl)-ethylcarbamoyl]-ethyl}-2-p-tolyl-propionamide], the Ki is less than 100 nM.

As to `C[C@@H](CNc1ccc(OC(F)(F)F)cc1)NC(=O)[C@H](CC1CCCCC1)NC(=O)O[C@@H]1CCOC1` [Compound 188, {2-Cyclohexyl-1-(S)-[1-(S)-methyl-2-(4-trifluoromethoxy-phenylamino)-ethylcarbamoyl]-ethyl}-carbamic acid tetrahydrofuran-3-(R)-yl ester], the Ki was less than 100 nM.

With `Cc1noc(C)c1S(=O)(=O)N[C@@H](CC1CCCCC1)C(=O)N[C@@H](C)CN1CCc2cc(F)ccc21` [Compound 263, (S,S)-3-Cyclohexyl-2-(3,5-dimethyl-isoxazole-4-sulfonylamino)-N-[2-(5-fluoro-2,3-dihydro-indol-1-yl)-1-methyl-ethyl]-propionamide], the inhibition constant (Ki) is less than 100 nM.

One may read the Ki as the equilibrium dissociation constant of an inhibitor or competing ligand from its target.
